Laboratory results: patent publication US11746097B2, “LXR inverse agonists for treatment of cancer” (Saint Louis University, priority 2016, dated 2023)

Tests used:
human LXRα-LBD = target: T1, human LXRα-LBD (Homo sapiens, UniProt Q13133); assay: Lantha Screen TR-FRET NR-cofactor peptide interaction assay; type: biochemical
T1 construct: Purified human LXRα-LBD (GST); purchased Life Technologies
T1 sequence (Q13133 209-447 limits assumed): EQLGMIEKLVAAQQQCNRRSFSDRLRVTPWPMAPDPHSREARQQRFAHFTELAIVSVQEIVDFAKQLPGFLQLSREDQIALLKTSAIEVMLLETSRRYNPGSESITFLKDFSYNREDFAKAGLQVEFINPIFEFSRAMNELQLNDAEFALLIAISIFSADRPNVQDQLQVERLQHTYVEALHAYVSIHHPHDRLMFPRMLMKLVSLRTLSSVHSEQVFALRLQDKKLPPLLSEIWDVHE
Method: Biochemical NR—Cofactor Peptide Interaction Assay (TR-FRET) Assay (Life Technologies kit). Purified human LXRα-LBD (GST), LXRβ-LBD (GST), fluoroscein (FL)-labeled peptides, terbium (TB)-labeled anti-GST tag antibody, and all buffers were purchased from Life Technologies. All LXR assays were conducted in 384-well black medium-binding polystyrene assay plates (Greiner Bio-One). Test compound stock solutions and subsequent serial dilutions were prepared at 100× the final concentration in DMSO, and then were diluted to the final assay concentration of 2× in assay buffer and dispensed into assay plates. LXR-LBDs were added to assay plates and then a mixture of FL-peptide/TB-anti-GST was added to each well containing either a test compound or DMSO control for final concentrations of 2.5 nM LXRα-LBD, 5 nM LXRβ-LBD, 10 nM TB-anti-GST, and 250 nM FL-peptide. Assay plates were protected from light and incubated with gentle shaking for 3.5 hours at room temperature. The TR-FRET ratio (520 nm/492 nm) of each assay well was measured using the Perkin Elmer EnVision plate reader. An excitation filter at 340 nm was used to excite the TB-anti-GST and emission filters 492 nm and 520 nm were used to detect terbium and fluorescein emission signals respectively. A delay of 100 μs followed by a 200 μs integration time was used to collect the time-resolved emission signals.
The assay is identical except we use His-tagged LXR (made in house) and TB-labeled anti-His antibody (Life Technologies). FL-labeled peptides (Life Technologies) are: • NCOR-ID1 NCOR-ID2 SMRT SRC1-2 SRC2-3 TRAP/DRIP

[1] = system: lung and breast tumor bearing mice; assay: Tumor specific immune response in tumor bearing mice (FIG. 1B); type: in vivo
dendritic cell = assay: Cultured dendritic cell chemokine expression (FIG. 1A); type: cell-based; details: cultured dendritic cells

Cc1cc(C)c(S(=O)(=O)N2Cc3ccccc3CC2C(=O)NCCc2cccc(C#N)c2)c(C)c1 (stereo not shown) [Compound 38]
IC50 (human LXRα-LBD): 0.661 µM

O=C(Nc1ccc2cc(Br)ccc2n1)c1cccc(Cl)c1 [Compound 113]
IC50 (human LXRα-LBD): 5.2 µM

Cc1cc(C)c(S(=O)(=O)N2Cc3ccc(-c4cccc(S(C)(=O)=O)c4)cc3CC2C(=O)NCc2ccc(C#N)cc2)c(C)c1 (stereo not shown) [Compound 5, N-(4-cyanobenzyl)-2-(mesitylsulfonyl)-6-(3-(methylsulfonyl)phenyl)-1,2,3,4 tetrahydroisoquinoline-3-carboxamide]
IC50 (human LXRα-LBD): 8.3 µM

Cc1cc(C)c(S(=O)(=O)N2Cc3ccc(-c4cccc(S(C)(=O)=O)c4)cc3CC2C(=O)NCc2cccc(C#N)c2)c(C)c1 (stereo not shown) [Compound 12]
IC50 (human LXRα-LBD): 0.02 µM

Cc1cc(C)c(S(=O)(=O)N(CCc2cccc(Br)c2)Cc2ccc(-c3cccc(S(C)(=O)=O)c3)cc2)c(C)c1 [SR9243]
cytotoxic T-cell activity [1]: induces | dendritic cell activity [1]: induces | inhibition of dendritic cell chemokine expression by LXR agonists and tumor specific LXR ligands (dendritic cell): disrupted

COC(=O)C1Cc2cc(-c3cccc(S(C)(=O)=O)c3)ccc2CN1S(=O)(=O)c1c(C)cc(C)cc1C (stereo not shown) [Compound 3, methyl 2-(mesitylsulfonyl)-6-(3-(methylsulfonyl)phenyl)-1,2,3,4-tetrahydroisoquinoline-3-carboxylate]
IC50 (human LXRα-LBD): 5 µM

COc1ccc(-c2ccc3nc(NS(=O)(=O)c4c(C)cc(C)cc4C)ccc3c2)cc1 [Compound 104]
IC50 (human LXRα-LBD): 4.3 µM

Cc1cc(C)c(S(=O)(=O)N2Cc3ccc(-c4cccc(S(C)(=O)=O)c4)cc3CC2C(=O)NCCc2cccc(C#N)c2)c(C)c1 (stereo not shown) [Compound 14]
IC50 (human LXRα-LBD): 2.1 µM
